Experimental data taken from US20090036495A1, “Combinations Comprising Alpha-2-Delta Ligands and Ep4 Receptor Antagonists” (Pfizer, Inc., priority 2004, published 2009).

System: Male Sprague-Dawley rats
Experiment: Carrageenan-induced mechanical hyperalgesia (CIMH), paw withdrawal threshold
Assay type: in vivo
Conditions: rat, per orally
Method: Carrageenan-induced mechanical hyperalgesia (CIMH)[1] is utilized to evaluate analgesic activity of drugs against acute inflammatory pain.
1% carrageenan is prepared at least two days before use. An appropriate amount of λ-carrageenain is weighed into a 10 ml screw vial. Sterile saline is added to make 1% (w/v) suspension solution and the suspension is stirred for 8 hours with gentle heating to be dissolved obtain homogeneous suspension.
Male Sprague-Dawley rats, 4 W (Japan SLC or Charles River Japan), 100-130 g are used. Environment conditions are controlled at a 12-h light/dark cycle with (lights on 076:00 a.m.). and an ambient temperature of 23+/−2 deg. C. Prior to start the experiment, animals are housed under this condition for 4-5 days. Each group is used a group of 6-8 rats. The rats are fasted for 16-18 hours before use and the rats are trained for measurement of mechanical threshold using the apparatus for two days before use.
The paw withdrawal response of the rat to increased pressure on a right hindpaw is recorded as mechanical threshold. The threshold is defined as “pre value”. Hyperalgesia is induced by intraplantar injection of 0.1 ml of 1% carrageenain in the right hindpaw. The paw withdrawal threshold is measured at 3.5 and 4.5 hours after the carrageenan injection. Rats are randomly grouped by the paw withdrawal threshold at 4.5 hours and pre value after the carrageenan injection. Vehicle or test compounds (10 ml of 0.1% methylcellulose/1 kg body weight) are given per orally at 5.5 hours after the carrageenain injection. The paw withdrawal Mechanical threshold is measured by an analgesy meter at 4, 5, 6.5 and 7.5 hours after the carrageenin carrageenan injection. The threshold at 6.5 or 7.5 hours is determined as ‘post value’.
% change in threshold=(preost value−postre value)/(pre value)×100% inhibition=(B−A)/(C−A)×100
A=average of % change in threshold post values in disease control (vehicle treated) group B=average of % change in threshold post values in compound treated group C=average of pre values of all rats used
% inhibition=(A−B)/|A|×100
The data is analyzed with unpaired t-test or one-way ANOVA (plus multiple comparison test) for % change in thresholdpost values. Results are considered significant when p<0.05 versus disease control group.

SMILES	Inhibition (%) 2 hours post dosing (dose 0.3 mg/kg) [%]	Inhibition (%) 2 hours post dosing (dose 1 mg/kg) [%]	Inhibition (%) 2 hours post dosing (dose 3 mg/kg) [%]	Inhibition (%) 2 hours post dosing (dose 10 mg/kg) [%]	Inhibition (%) 2 hours post dosing (dose 30 mg/kg) [%]	Inhibition (%) 2 hours post dosing (dose 100 mg/kg) [%]
C[C@H](NC(=O)c1cc(Cl)cnc1Oc1cccc(F)c1)c1ccc(C(=O)O)cc1 [4-[(1S)-1-({[5-chloro-2-(3-fluorophenoxy)pyridin-3-yl]carbonyl}amino)ethyl]benzoic acid]	19.2	41.9	50	–	–	–
CC(C)C[C@H](CN)CC(=O)O [Pregabalin, (S)-(+)-4-amino-3-(2-methylpropyl)butanoic acid]	–	–	1.6	8.4	16.4	31
